≈ marks a conversion by molar mass, not a printed value. Where two headings read alike, the source gives them in different places.
Assays:
[1] = tested on: L1210 mouse leukemia cells; assay: Proliferation assay (14C-thymidine incorporation) on L1210 leukemia cells; type: cell-based; conditions: read-out: Proliferation test IC50
Procedure: (§1) The cytostatic activity of the compounds described in this text was determined on L1210 mouse leukemia cells. Specifically, the following test systems were used:
In this method, the extent to which the cells can incorporate radioactive DNA precursors (for example ^14 C-labeled thymidine) in vitro is determined after incubation of the cells with various concentrations of the test substance. Untreated L1210 cells are subjected to the same test conditions and serve as the control. The method is briefly described below:
L1210 cells in the exponential phase of growth (5×10^3 /ml in RPMI 1640) are incubated in a microtiter plate with various concentrations of the test substance for 72 hours (37° C., 5% CO2, 95% relative humidity). The controls comprise cells which are merely incubated with fresh medium. All determinations are carried out in quadruplicate. After 65 hours, 50 μl of ^14 C-thymidine (1.5 μCi/ml) are added in order to radiolabel the DNA in the cells. After incubation for 7 hours, the cells are filtered off with suction, the DNA is precipitated with 5% strength trichloroacetic acid and is then washed consecutively with water and methanol.
After drying at 50° C. and addition of 5 ml of scintillation liquid, the radioactivity incorporated in the DNA is measured.
The results are reported as the ratio of the scintillation count after incubation with the test substance as a percentage of the untreated control. The dose-activity curve is derived from the figures thus measured, and the IC50, i.e. the concentration which decreases the incorporation of radioactive thymidine by 50% compared with the control under the test conditions, is determined graphically. The IC50 figures for the compounds described in this text are summarized and compared with adriamycin (ADM) in Table 1.

L1210 leukemia cells = assay: Formation of colonies of L1210 leukemia cells in soft agar; type: cell-based; conditions: Mus musculus
Procedure: as §1
(b) Formation of colonies of L1210 leukemia cells in soft agar
This method is used to detect an effect of the test substance on the growth characteristics of the cells over several generations (with the cell cycle period being 10-12 hours, about 14 consecutive generations are observed in the 7-day test period).
In this test, substances having cytostatic effects bring about a reduction in the number of colonies found compared with an untreated control. Specifically, the test is carried out as follows:
500 leukemia cells per plate are incubated with various concentrations of the test substance at 37° C. for 1 hour. The cells are then washed twice with McCoy 5a medium and, after addition of 0.3% agar, are finally poured into Petri dishes. Controls are merely incubated with fresh medium. In some cases, in place of incubation for 1 hour, various concentrations of the test substance are mixed into the upper agar layer in order thus to achieve continuous exposure of the cells throughout the incubation time. After the agar has solidified, the plates are incubated in an incubator at 37° C. for 7 days (5% CO2, 95% relative humidity). Then the number of resulting colonies having a diameter of 60μ is counted. The results are reported as the number of colonies in the treated agar plates as a percentage of the untreated control. The IC50 is determined from the dose-activity curve thus obtained and serves as a measure of the action of the substance. The results for the compounds described in this text are summarized and compared with adriamycin in Table 1.

[2] = 72 hours incubation, L1210 cells, 14C-thymidine incorporation
[3] = 168 h, 7 days incubation (continuous exposure), soft agar, L1210, read-out: Colony formation test IC50, 7 days incubation
[4] = 1 hour incubation, then washed, soft agar 7 days, L1210, read-out: Colony formation test IC50, 1 hour incubation
[5] = L1210, 168 h, read-out: Colony formation test IC50, 7 days incubation
[6] = L1210, read-out: Colony formation test IC50, 1 hour incubation

COc1cccc2c1C(=O)c1c(O)c3c(c(O)c1C2=O)C[C@@](O)(C(=O)CO)C[C@@H]3O[C@H]1C[C@H](N)[C@H](O)[C@H](C)O1 [ADM, adriamycin, reference compound]
IC50 [1, 2]: 6 ng/mL (≈ 11 nM) | IC50 (L1210 leukemia cells; [3]): 22 ng/mL (≈ 40.5 nM) | IC50 (L1210 leukemia cells; [4]): 44 ng/mL (≈ 81 nM)

CCC1(O)CC(OC2CC(N(C)C)C(OC3CCC(OC4CCC(O)C(C)O4)C(C)O3)C(C)O2)c2c(O)c3c(c(O)c2C1OC1CC(N(C)C)C(OC2CCC(OC4CCC(O)C(C)O4)C(C)O2)C(C)O1)C(=O)c1cccc(O)c1C3=O (stereo not shown) [Cytorhodin A]
IC50 [1, 2]: 1.1 ng/mL (≈ 0.95 nM) | IC50 (L1210 leukemia cells; [3]): 3 ng/mL (≈ 2.59 nM) | IC50 (L1210 leukemia cells; [4]): 1.3 ng/mL (≈ 1.12 nM)

CCC1(O)CC(OC2CC(N(C)C)C(OC3CC(O)C(OC4CCC(=O)C(C)O4)C(C)O3)C(C)O2)c2c(O)c3c(c(O)c2C1OC1CC(N(C)C)C(OC2CCC(OC4CCC(O)C(C)O4)C(C)O2)C(C)O1)C(=O)c1cccc(O)c1C3=O (stereo not shown) [Cytorhodin B]
IC50 [1, 2]: 2.8 ng/mL (≈ 2.39 nM) | IC50 (L1210 leukemia cells; [3]): 3.4 ng/mL (≈ 2.9 nM) | IC50 (L1210 leukemia cells; [4]): 1.2 ng/mL (≈ 1.02 nM)

CCC1(O)CC(OC2CC(N(C)C)C(OC3CC4OC5CC(=O)C(C)OC5OC4C(C)O3)C(C)O2)c2c(O)c3c(c(O)c2C1OC1CC(N(C)C)C(OC2CC4OC5CC(=O)C(C)OC5OC4C(C)O2)C(C)O1)C(=O)c1cccc(O)c1C3=O (stereo not shown) [Cytorhodin C]
IC50 ([1]; L1210, 72 h): 0.55 ng/mL (≈ 0.466 nM) | IC50 (L1210 leukemia cells; [5]): 0.15 ng/mL (≈ 0.127 nM) | IC50 (L1210 leukemia cells; [6]): 3.4 ng/mL (≈ 2.88 nM)

CCC1(O)CC(OC2CC(N(C)C)C(OC3CC4OC5CC(=O)C(C)OC5OC4C(C)O3)C(C)O2)c2c(O)c3c(c(O)c2C1OC1CC(N(C)C)C(OC2CCC(OC4C=CC(=O)C(C)O4)C(C)O2)C(C)O1)C(=O)c1cccc(O)c1C3=O (stereo not shown) [Cytorhodin D]
IC50 ([1]; L1210, 72 h): 0.28 ng/mL (≈ 0.24 nM) | IC50 (L1210 leukemia cells; [5]): 3.7 ng/mL (≈ 3.18 nM) | IC50 (L1210 leukemia cells; [6]): 2.8 ng/mL (≈ 2.4 nM)

CCC1(O)CCc2c(O)c3c(c(O)c2C1OC1CC(N(C)C)C(OC2CCC(OC4CCC(O)C(C)O4)C(C)O2)C(C)O1)C(=O)c1cccc(O)c1C3=O (stereo not shown) [Cytorhodin E]
IC50 [1, 2]: 25 ng/mL (≈ 33.1 nM) | IC50 (L1210 leukemia cells; [3]): 1.4 ng/mL (≈ 1.85 nM) | IC50 (L1210 leukemia cells; [4]): 28 ng/mL (≈ 37 nM)

CCC1(O)CC(OC2CC(N(C)C)C(OC3CCC(OC4C=CC(=O)C(C)O4)C(C)O3)C(C)O2)c2c(O)c3c(c(O)c2C1OC1CC(N(C)C)C(OC2CCC(OC4C=CC(=O)C(C)O4)C(C)O2)C(C)O1)C(=O)c1cccc(O)c1C3=O (stereo not shown) [Cytorhodin F]
IC50 [1, 2]: 2.4 ng/mL (≈ 2.09 nM) | IC50 (L1210 leukemia cells; [3]): 28 ng/mL (≈ 24.4 nM) | IC50 (L1210 leukemia cells; [4]): 42 ng/mL (≈ 36.5 nM)

CCC1(O)CC(OC2CCC(OC3CCC(OC4CCC(O)C(C)O4)C(C)O3)C(C)O2)c2c(O)c3c(c(O)c2C1C(=O)OC)C(=O)c1cccc(O)c1C3=O (stereo not shown) [Cytorhodin J]
IC50 [1, 2]: 4400 ng/mL (≈ 5710 nM)

CCC1(O)CCc2c(O)c3c(c(O)c2C1OC1CC(N(C)C)C(OC2CC(O)C(OC4CCC(O)C(C)O4)C(C)O2)C(C)O1)C(=O)c1cccc(O)c1C3=O (stereo not shown) [Cytorhodin K]
IC50 [1, 2]: 3.7 ng/mL (≈ 4.79 nM) | IC50 (L1210 leukemia cells; [3]): 3 ng/mL (≈ 3.89 nM) | IC50 (L1210 leukemia cells; [4]): 31 ng/mL (≈ 40.2 nM)

CCC1(O)CCc2c(O)c3c(c(O)c2C1OC1CC(N(C)C)C(OC2CCC(O)C(C)O2)C(C)O1)C(=O)c1cccc(O)c1C3=O (stereo not shown) [Cytorhodin L]
IC50 [1, 2]: 300 ng/mL (≈ 467 nM) | IC50 (L1210 leukemia cells; [3]): 210 ng/mL (≈ 327 nM) | IC50 (L1210 leukemia cells; [4]): 1750 ng/mL (≈ 2730 nM)

CCC1(O)CCc2c(O)c3c(c(O)c2C1OC1CC(N(C)C)C(OC2CC(O)C(O)C(C)O2)C(C)O1)C(=O)c1cccc(O)c1C3=O (stereo not shown) [Cytorhodin M]
IC50 [1, 2]: 280 ng/mL (≈ 426 nM) | IC50 (L1210 leukemia cells; [3]): 160 ng/mL (≈ 243 nM) | IC50 (L1210 leukemia cells; [4]): 390 ng/mL (≈ 593 nM)

CCC1(O)CC(OC2CC(N(C)C)C(OC3CC(O)C(OC4CCC(=O)C(C)O4)C(C)O3)C(C)O2)c2c(O)c3c(c(O)c2C1OC1CC(N(C)C)C(OC2CCC(OC4C=CC(=O)C(C)O4)C(C)O2)C(C)O1)C(=O)c1cccc(O)c1C3=O (stereo not shown) [Cytorhodin P]
IC50 [1, 2]: 2.6 ng/mL (≈ 2.23 nM) | IC50 (L1210 leukemia cells; [3]): 0.32 ng/mL (≈ 0.274 nM) | IC50 (L1210 leukemia cells; [4]): 2.8 ng/mL (≈ 2.4 nM)

CCC1(O)CC(OC2CC(N(C)C)C(OC3CCC(OC4C=CC(=O)C(C)O4)C(C)O3)C(C)O2)c2c(O)c3c(c(O)c2C1OC1CC(N(C)C)C(OC2CCC(OC4CCC(O)C(C)O4)C(C)O2)C(C)O1)C(=O)c1cccc(O)c1C3=O (stereo not shown) [Cytorhodin V]
IC50 [1, 2]: 2.9 ng/mL (≈ 2.51 nM) | IC50 (L1210 leukemia cells; [3]): 0.27 ng/mL (≈ 0.234 nM) | IC50 (L1210 leukemia cells; [4]): 2 ng/mL (≈ 1.73 nM)
